This is an account of results in PubChem BioAssay (NCI).

Common to all, as to assay: NCI-60 cell line screen, 48 h
Assay [1] concerns COLO 205 colon.
For assay [2], the system named is HOP-62 NSCLC.
The test system of assay [3] is HOP-92 NSCLC.
In assay [4] the test system is IGROV1 ovarian.
Assay [5] concerns MALME-3M melanoma.
In assay [6] the test system is MDA-MB-435.
The subject of assay [7] is NCI/ADR-RES ovarian.
Assay [8] deals with RXF 393 renal.
Assay [9] deals with SNB-75 CNS.
Assay [10] relates to SR leukemia.

“And” between values parts separate entries of the source, which are not always exact repeats. Identical values can stand only once.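 Cultured in 96-well plates, cells were exposed to test compound for 48 hours across five concentrations. GI50 = concentration required for 50% inhibition of growth. TGI marks complete inhibition of growth.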

`CCCCn1c(-c2ccc([N+](=O)[O-])cc2)cs/c1=N/N=C1\C(=O)Nc2ccc(Br)cc21`: the TGI in [1] was 28.7 µM; in assay [2] it was 37.9 µM; in [3], 73.3 µM; in [4] it was above 100 µM; in [5], above 100 µM; in assay [6], 37.3 µM. The results for the TGI in assay [7], in assay [8] and in [9] were 37.4 µM, 22.5 µM and 59.8 µM, respectively.
As to `NS(=O)(=O)c1cccc(NC(=S)NC(=O)Nc2ccc(Cl)c(Cl)c2)c1`, the TGI in [1] was determined as 35.4 µM; in assay [2], 30.9 µM; in [3], 54 µM; in assay [4], 45.4 µM; in assay [5], 29.4 µM; in assay [7] it was 36.1 µM. Moreover, the figures for the TGI in assay [8] and in [9] were 58.9 µM and 54.9 µM, respectively.
For `CCOC(=O)c1nnsc1NN`, the TGI in assay [1], in [2], in [3], in assay [4], in [6] and in [7] was above 100 µM throughout. For the same molecule, the TGI in assay [8] and in assay [9] was above 100 µM in each case.
With `COC(=O)C1(Cc2ccc3c(c2)CCC3)Cc2ccccc2C1`, the TGI in assay [1] was 67.8 µM; in [2] it was above 100 µM; in assay [4], above 100 µM; in assay [5] it was above 100 µM; in [6], above 100 µM; in assay [7], above 100 µM. The TGI in [9] and in [10] was above 100 µM in each case.
Take `CCOC(=O)c1nc2cc(C(F)(F)F)ccc2nc1Nc1ccc(C(=O)NC(C(=O)OCC)C(=O)OCC)cc1`: the TGI is above 100 µM in assay [1]; 41 µM in [2]; 58.8 µM in assay [3]; 54.2 µM in [4]; 40.3 µM in assay [5]; above 100 µM in assay [6]. Moreover, the TGI was 28.8 µM in assay [8] and above 100 µM in [10].
Regarding `CO[C@]12C[C@H](CNC(=O)c3ccc[nH]3)O[C@H]1NC(=O)N2`, the TGI in assay [1], in [2], in [3], in [4], in assay [5] and in assay [6] was above 100 µM throughout. The TGI in assay [7] and in assay [10] was above 100 µM in each case.
Turning to `CNC(=O)CCCNC(=O)CCCC(=O)N(C)C`, the TGI in assay [1], in [2], in assay [3], in [4], in [5] and in [6] was above 100 µM throughout. Besides, the TGI in [7] and in assay [9] was above 100 µM throughout.
As for `CCCSc1nc(-c2ccc(OC)cc2)c(C#N)c(=O)n1C1OC(COC(C)=O)C(OC(C)=O)C(OC(C)=O)C1OC(C)=O` (configuration not stated), the TGI in [1] is above 100 µM; in assay [2], above 100 µM; in assay [3] it was > 100 µM and 93.7 µM; in assay [4], above 100 µM; in assay [5], above 100 µM; in [8] it was > 100 µM and 61.2 µM. The TGI in [9] and in [10] was above 100 µM throughout. For the same molecule, the GI50 was > 100 µM and 30.1 µM in [2]; > 100 µM and 28.2 µM in assay [3]; > 100 µM and 43.4 µM in assay [4]; > 100 µM and 32.3 µM in assay [5]; > 100 µM and 17.2 µM in assay [8].
As for `CCC(C(=O)C(=O)OC)P1(=O)OC(C)(C)CN1C(C)(C)C` (configuration not stated), the TGI in [1], in [2], in assay [4], in assay [5], in [6] and in [7] was above 100 µM throughout. Moreover, the TGI in [9] and in assay [10] was above 100 µM in each case.
On to `C\C(=N/N=C1/C(=C\N(C)C)C(=O)NC(=O)N1C)c1ccc(Cl)cc1`, for which the TGI in assay [1], in assay [2], in assay [3], in assay [4], in assay [5] and in assay [6] was above 100 µM throughout. Also, the TGI in assay [7], in assay [8] and in assay [9] was above 100 µM in each case.
Take `CC(=O)OC1CCC2C3CCc4c(C)ccc(OS(=O)(=O)c5ccccc5)c4C3CCC12C` (configuration not stated): the TGI in assay [1] is above 100 µM; in assay [2] it was above 100 µM; in assay [3], 37.9 µM; in assay [4], above 100 µM; in [5] it was above 100 µM; in [6], above 100 µM. Further, the figures for the TGI in [8] and in assay [10] were 94.4 µM and above 100 µM, respectively.
In the case of `Cc1cnc2c(c1)C(=O)C1=C(C2=O)C2OC(=O)CC2OC1(C)C` (configuration not stated), the TGI in assay [1] was 0.326 µM; in assay [2] it was 2.58 µM; in assay [3], 0.384 µM; in assay [4] it was 0.424 µM; in assay [5] it was 0.191 µM; in [6], 0.912 µM. Further, the TGI in [8] was determined as 0.507 µM; in [9] it was 4.1 µM; in [10], 0.29 µM.
In the case of `NC(=O)N/N=C1\CC2C3CC4C2C4C13` (configuration not stated), the TGI in [1], in [2], in assay [3], in [4], in assay [5] and in assay [6] was above 100 µM each time. The TGI in [7], in [9] and in assay [10] was above 100 µM each time.
Consider `N#Cc1nc(NC(=O)c2ccccc2C(=O)O)c(C#N)[nH]1`, for which the TGI in [1], in assay [2], in assay [3], in assay [4], in assay [5] and in [6] was above 100 µM in each case. Further, the TGI in assay [7] and in [9] was above 100 µM each time.
For `c1c2c(cc(-n3nnc4c3CCCCCC4)c1-n1nnc3c1CCCCCC3)CCCCCC2`, the TGI came out at 39 µM in assay [2]; 12.6 µM in assay [3]; 41.2 µM in assay [4]; 21.6 µM in assay [8]; 32.1 µM in assay [9].
In the case of `CCOC(=O)C#Cc1ccccc1`, the TGI was 25.9 µM in assay [1]; 46.3 µM in assay [2]; 36.9 µM in assay [3]; 33.2 µM in [5]; 45.6 µM in assay [6]; above 100 µM in [7]. In addition, the TGI in assay [10] came to 4.76 µM.
Consider `OCc1ccc2c(c1)CC1(Cc3ccc(/C=N/O)cc3C1)C2` (configuration not stated), for which the TGI in assay [1] is 13.9 µM; in [2], above 76.7 µM; in assay [3], 59.5 µM; in assay [4], above 100 µM; in assay [5], above 78.8 µM; in assay [6], 1.51 µM. Besides, the TGI is 37 µM in assay [7], above 25.5 µM in assay [9] and above 100 µM in assay [10].
In the case of `O=c1cc(N2CCCC2)[nH]c(=O)n1-c1ccccc1`, the TGI in assay [1], in assay [2], in assay [3], in assay [4], in assay [5] and in assay [6] was above 100 µM each time. Also, the TGI in assay [7], in assay [9] and in [10] was above 100 µM throughout.
In the case of `CCOP(=O)(/C=C\n1ccc(N)nc1=O)OCC`, the TGI in assay [1], in [2], in assay [4], in [6], in [7] and in assay [8] was above 100 µM throughout. Also, the TGI in assay [9] is above 100 µM.
Regarding `CC12CCCC3(CC(=O)C(C)(C)C3C(=O)C1)C2` (configuration not stated), the TGI in [1], in assay [2], in assay [3], in [4], in assay [5] and in assay [6] was above 100 µM each time. Besides, the TGI in assay [7], in [9] and in assay [10] was above 100 µM each time.
Turning to `CCOC(=O)/C(O)=C1\C(=O)N(C)C(=O)C1c1cccc(OC)c1` (configuration not stated), the TGI in [1], in [2], in assay [3], in assay [4], in assay [5] and in assay [7] was above 100 µM throughout. For the same molecule, the TGI in assay [8] and in assay [9] was above 100 µM each time.
As for `O=C(N/N=C/c1ccc(Br)cc1)N/N=C/c1ccc(Br)cc1`, the TGI is above 100 µM in assay [1]; 17.5 µM in assay [2]; 27.7 µM in [4]; 15.6 µM in assay [5]; 76 µM in assay [6]; 29.6 µM in assay [7]. Besides, the TGI in assay [8] came to 40.5 µM; in assay [10], 17.7 µM.
Regarding `CC1(C)[C@H]2CC[C@@]13C(=O)N1C(=O)O[C@@H]([C@H]1Cl)C(Cl)(COCc1ccccc1)C(=O)OCCO[C@H]3C2` (some centres not stated), the TGI was 36.6 µM in [1]; above 100 µM in [2]; above 100 µM in assay [3]; above 100 µM in assay [4]; above 100 µM in assay [5]; above 100 µM in assay [6]. The TGI in assay [7], in assay [9] and in assay [10] was above 100 µM in each case.
`CC(=O)OC1C(COC(=O)c2ccccc2)OC(Nc2ncc(-c3ccc(Br)cc3)s2)C(OC(=O)c2ccccc2)C1OC(=O)c1ccccc1` (configuration not stated): the TGI in [1], in [2], in assay [3], in assay [4], in assay [5] and in [6] was above 100 µM each time. Further, the TGI in assay [8], in [9] and in assay [10] was above 100 µM each time.
For `Cn1c2ccccc2c(=O)c2c(O)cc3c(c21)C=CC1(CCCCC1)O3`, the TGI in assay [1], in [2], in assay [3], in assay [4], in assay [5] and in assay [6] was above 10 µM throughout. In addition, the TGI in assay [7], in assay [8] and in assay [9] was above 10 µM throughout.
Turning to `CCCCCCCCCc1nn2c(Cc3ccccc3)nnc2s1`, the TGI in assay [1] was 41 µM; in [2], 39.6 µM; in assay [6] it was 62 µM; in assay [7] it was 32.7 µM; in [8], 38.3 µM; in assay [9], 65.4 µM.
For the molecule `Cc1c2c(OCC3CCCCO3)nn(C)c(=O)c2c(C)n1-c1ccccc1` (configuration not stated), the TGI in assay [1] was 33.3 µM; in assay [2], 38 µM; in [3], 33.1 µM; in assay [4], 37.8 µM; in [5], 33.1 µM; in assay [6] it was 37.4 µM. Further, the TGI was found to be 50.7 µM in assay [7], 34.3 µM in assay [8] and 32 µM in assay [9].
`COc1ccc(C2c3cc4c(cc3OC(N3CCOCC3)C2C)OCO4)c(OC)c1OC` (configuration not stated): the TGI in assay [1] is 33.6 µM; in assay [2], above 100 µM; in assay [4] it was 70.7 µM; in [6], 7.01 µM; in assay [7] it was above 100 µM; in [10], 35.6 µM.
With `CN(C)CCC(=O)/C=C\c1ccccc1`, the TGI in [1] is 29.3 µM; in assay [2], above 100 µM; in assay [3], 32.9 µM; in assay [4], 62 µM; in [5], 32.8 µM; in [8] it was 29.2 µM. Also, the figures for the TGI in assay [9] and in assay [10] were above 100 µM and 35.1 µM, respectively.
With `COc1ccc(COCC[C@H](C)OC2OC(CO[Si](C)(C)C(C)(C)C)C(OC(=O)CCCN=[N+]=[N-])C(OC(=O)CCCN=[N+]=[N-])C2OC(=O)CCCN=[N+]=[N-])cc1` (some centres not stated), the TGI is 83.1 µM in [1]; above 100 µM in [2]; above 100 µM in assay [3]; above 100 µM in assay [4]; above 100 µM in assay [5]; above 100 µM in assay [6]. For the same molecule, the TGI is 60.9 µM in assay [7], above 100 µM in assay [8] and 59.9 µM in assay [9].
Turning to `COC(=O)C1=Nc2c(C)nn(-c3ccccc3)c2N=C(c2ccccc2)C1`, the TGI in [1], in [2], in assay [3], in assay [4], in assay [5] and in [6] was above 10 µM throughout. Also, the TGI in [7], in assay [9] and in assay [10] was above 10 µM in each case.
